pEC50: −log10 of the molar value. [ ]: non-standard residue; d: D form. 2Nal = N[C@@H](Cc1ccc2ccccc2c1)C(=O)O; Nle = CCCC[C@H](N)C(=O)O
What was measured:
[1] = system: guinea pig tracheal smooth muscle; assay: Tracheal relaxant activity of VIP analogs on isolated guinea pig tracheal rings; format: cell-based; conditions: cumulative concentration response; responses as % of maximum response to VIP (10^-6 M=100%); at least three tissues pooled; linear regression
guinea pigs = assay: In vivo bronchodilator activity by tracheal instillation against histamine-induced bronchoconstriction; parameters: species or system guinea pig; conditions: 100 μl, anesthetized male Hartley guinea pigs, histamine challenge 50 μg/kg i.v., inhibition of tracheal pressure increase

For “Ac--[2-Nal^10, Lys^12, Nle^17, Ala^19, Val^26, Thr^28, Gly^29,30, Met^31 ]--VIP (Ac-HSDAVFTDN[2Nal]TKLRKQ[Nle]AAKKYLNSVLTGGM-NH2; SMILES CCCC[C@H](NC(=O)[C@H](CCC(N)=O)NC(=O)[C@H](CCCCN)NC(=O)[C@H](CCCNC(=N)N)NC(=O)[C@H](CC(C)C)NC(=O)[C@H](CCCCN)NC(=O)[C@@H](NC(=O)[C@H](Cc1ccc2ccccc2c1)NC(=O)[C@H](CC(N)=O)NC(=O)[C@H](CC(=O)O)NC(=O)[C@@H](NC(=O)[C@H](Cc1ccccc1)NC(=O)[C@@H](NC(=O)[C@H](C)NC(=O)[C@H](CC(=O)O)NC(=O)[C@H](CO)NC(=O)[C@H](Cc1c[nH]cn1)NC(C)=O)C(C)C)[C@@H](C)O)[C@@H](C)O)C(=O)N[C@@H](C)C(=O)N[C@@H](C)C(=O)N[C@@H](CCCCN)C(=O)N[C@@H](CCCCN)C(=O)N[C@@H](Cc1ccc(O)cc1)C(=O)N[C@@H](CC(C)C)C(=O)N[C@@H](CC(N)=O)C(=O)N[C@@H](CO)C(=O)N[C@H](C(=O)N[C@@H](CC(C)C)C(=O)N[C@H](C(=O)NCC(=O)NCC(=O)N[C@@H](CCSC)C(N)=O)[C@@H](C)O)C(C)C) [Ac--(SEQ ID NO: 18)--NH2]”, the pEC50 [1] was 9.62 and the “Bronchodilator activity in guinea pigs, ED50” value (guinea pigs) was 0.35 µg.
